According to patent publication US8334298B2, “Treatment or prevention of ovarian hyperstimulation syndrome (OHSS) using a dopamine agonist” (Ferring International Center S.A., priority 2005, dated 2012):

Test system: OHSS rats
Assay: Previous experiments of the group: cabergoline and vascular permeability in OHSS rats
Format: in vivo
Conditions: cabergoline 250 μg/kg/day; p<0.05
Method: Vehicle control group (quinagolide 0 μg/kg) (n=8). Eight rats were implanted with prolactin placebo pellets, 5 days release, between 10:00 to 11:00 on day 26, just following hCG injection (see General Procedures, above). Six hours after pellet implantation, the rats in this group were orally administered vehicle solution (1:6 alcohol in water mixture) (without quinagolide). They received another oral vehicle administration of vehicle solution 24 hours later. Experimental groups (quinagolide at 0.1, 0.3, 1, 3, 10, 25, 50 μg/kg/day to 7 test groups of rats) (n=8 in each test group). The rats in these groups were implanted with prolactin pellets, 5 days release, between 10:00 to 11:00 on day 26, just following hCG injection (see General Procedures, above). […] In this manner, the desired 0.1, 0.3, 1, 3, 10, 25, 50 μg/kg doses to be assayed were achieved. Twenty four hours later, the rats in this group were administered with another dose of the same amounts of quinagolide. Positive (cabergoline) control group (n=6). These six rats were implanted with prolactin pellets, 5 days release, between 10:00 to 11:00 .m on day 26, just following hCG injection. […] Twenty four hours later, the rats in this group were administered with another dose of the same amount of cabergoline. […] Reconstitution and dilution process to reach appropriate quinagolide doses for oral administration. […]

Compound: C=CCN1C[C@H](C(=O)N(CCCN(C)C)C(=O)NCC)C[C@@H]2c3cccc4[nH]cc(c34)C[C@H]21 [Cabergoline, cabergoline]
- vascular permeability in OHSS rats: significant decrease in vascular permeability
